Laboratory results taken from BigSolDB 2.1.

CCCCN(CCCC)c1ccc(C(=O)c2ccccc2C(=O)O)c(O)c1
solubility (mole fraction)
Conditions | 283.15 K | 288.15 K | 293.15 K | 298.15 K | 303.15 K | 308.15 K | 313.15 K | 318.15 K | 323.15 K
in acetone | 0.015 | 0.0171 | 0.0196 | 0.0216 | 0.0251 | 0.0291 | 0.033 | 0.0386 | 0.0436
in acetonitrile | 0.000701 | 0.000848 | 0.00113 | 0.00138 | 0.0018 | 0.00227 | 0.00284 | 0.00363 | 0.00444
in dichloromethane | 0.0128 | 0.0141 | 0.0157 | 0.0183 | 0.0214 | 0.0251 | – | – | –
in ethanol | 0.00193 | 0.00252 | 0.00334 | 0.00422 | 0.00529 | 0.00641 | 0.0082 | 0.0102 | 0.013
in ethyl acetate | 0.0043 | 0.00516 | 0.00606 | 0.00698 | 0.00782 | 0.009 | 0.00995 | 0.0112 | 0.0126
in isopropanol | 0.00178 | 0.00232 | 0.00302 | 0.0039 | 0.00508 | 0.00667 | 0.00886 | 0.0117 | 0.0147
in isopropyl acetate | 0.00415 | 0.00485 | 0.00544 | 0.00624 | 0.00715 | 0.00815 | 0.00901 | 0.00991 | 0.011
in methanol | 0.00164 | 0.00194 | 0.00238 | 0.00292 | 0.0037 | 0.0047 | 0.00617 | 0.00811 | 0.0111
in n-butyl acetate | 0.00418 | 0.00493 | 0.00556 | 0.00639 | 0.00727 | 0.00824 | 0.00952 | 0.0109 | 0.0123
in n-heptane | 1.5e-05 | 1.8e-05 | 2.3e-05 | 2.7e-05 | 3.3e-05 | 3.8e-05 | 4.3e-05 | 4.8e-05 | 5.2e-05
in n-propanol | 0.0165 | 0.0212 | 0.0258 | 0.0321 | 0.0399 | 0.0496 | 0.062 | 0.0773 | 0.0958
in n-propyl acetate | 0.0037 | 0.00454 | 0.00547 | 0.00631 | 0.00738 | 0.00846 | 0.00983 | 0.0115 | 0.0129
